Test results published in patent publication US20230024521A1, “JAK INHIBITORS” (Vimalan Biosciences, Inc., priority 2019, published 2023).
pIC50: −log10 of the molar value.

Key:
Type in all cases: biochemical
TYK2 = TYK2 (Homo sapiens, UniProt P29597); assay: JAK/TYK2 assay (Kinase Glo luminescence): Tyk2 kinase assay; details: 9 nM enzyme, 2 uM ATP, 30 uM IRS-1, 1 hr; read-out: Tyk2 kinase assay: IC50 Geomean
Protocol: (§1) Example A: JAK/TYK2 Assay 10 mM test compound stock or 1 mM control compound stock (tofocitinib, ruxolitinib or staurosporine) in DMSO was diluted to 0.4 mM in DMSO. A 3-fold series dilution was then performed in DMSO to generate 10 different compound concentrations. The assay was carried out in 384-well white plate. 0.5 μL of 40× compound DMSO solution at different concentrations was mixed with 10 uL 2× enzyme prepared in reaction buffer (20 mM HEPES, 10 mM MgCl2, 0.01% Tween, 1 mM DTT, pH 7.5). 10 uL 2× substrate mixture prepared in reaction buffer was then added to start the reaction. A short spin was done to settle down all solutions to the bottom of the plate. Final concentrations of test compound in the reaction mixture were 10000, 3333, 1111, 370, 123, 41.2, 13.7, 4.57, 1.52 and 0.51 nM, Concentrations of control compound were ten times less. Enzymatic reaction was conducted at 25° C. for 1-2 hours. 10 uL of Kinase Glo Reagents was added to stop the reaction and generate the luminescent signal which was measured using Envision. Luminescence signal was inversely related to kinase activity. […] The mixture without any compound was the positive control. [table]

JAK3 = biological target: T1, JAK3 (Homo sapiens, UniProt P52333); assay: JAK/TYK2 assay (Kinase Glo luminescence): Jak3 kinase assay; details: 1.5 nM enzyme, 2 uM ATP, 4 uM pEY, 1 hr; read-out: Jak3 kinase assay: IC50 Geomean
T1 sequence (P52333 1-1124): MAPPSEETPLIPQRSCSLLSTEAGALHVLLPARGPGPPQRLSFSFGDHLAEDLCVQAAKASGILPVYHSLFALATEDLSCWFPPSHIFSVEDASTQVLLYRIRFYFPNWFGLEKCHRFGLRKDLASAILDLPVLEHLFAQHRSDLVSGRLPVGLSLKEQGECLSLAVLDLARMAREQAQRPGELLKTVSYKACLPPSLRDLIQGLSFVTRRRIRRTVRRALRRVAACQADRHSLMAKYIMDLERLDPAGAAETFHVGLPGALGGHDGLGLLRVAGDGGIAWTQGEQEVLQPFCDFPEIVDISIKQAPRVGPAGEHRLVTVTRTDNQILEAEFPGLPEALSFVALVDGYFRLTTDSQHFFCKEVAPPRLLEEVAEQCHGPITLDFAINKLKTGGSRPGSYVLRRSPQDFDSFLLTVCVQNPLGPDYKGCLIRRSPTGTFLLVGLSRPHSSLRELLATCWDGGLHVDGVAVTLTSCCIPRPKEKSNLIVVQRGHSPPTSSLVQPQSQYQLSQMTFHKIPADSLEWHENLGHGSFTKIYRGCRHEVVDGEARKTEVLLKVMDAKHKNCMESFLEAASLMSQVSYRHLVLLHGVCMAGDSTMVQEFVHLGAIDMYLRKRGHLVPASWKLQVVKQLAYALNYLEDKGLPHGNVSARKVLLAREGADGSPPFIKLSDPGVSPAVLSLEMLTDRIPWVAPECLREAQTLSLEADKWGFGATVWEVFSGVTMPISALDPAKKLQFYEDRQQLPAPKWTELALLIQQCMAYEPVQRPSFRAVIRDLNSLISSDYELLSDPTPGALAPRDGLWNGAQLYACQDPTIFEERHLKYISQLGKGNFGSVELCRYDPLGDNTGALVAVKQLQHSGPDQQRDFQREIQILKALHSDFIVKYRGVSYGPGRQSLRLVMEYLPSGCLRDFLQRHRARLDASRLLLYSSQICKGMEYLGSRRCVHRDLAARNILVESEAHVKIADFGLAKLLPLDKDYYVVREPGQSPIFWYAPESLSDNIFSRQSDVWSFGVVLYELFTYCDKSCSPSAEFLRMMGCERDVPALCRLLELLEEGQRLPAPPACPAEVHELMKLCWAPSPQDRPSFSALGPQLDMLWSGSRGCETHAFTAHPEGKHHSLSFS
Protocol: as §1

JAK1 = JAK1 (Homo sapiens, UniProt P23458); assay: JAK/TYK2 assay (Kinase Glo luminescence): Jak1 kinase assay; details: 7.5 nM enzyme, 2 uM ATP, 30 uM IRS-1, 1 hr
Chain of JAK1 (P23458 whole entry, species assumed): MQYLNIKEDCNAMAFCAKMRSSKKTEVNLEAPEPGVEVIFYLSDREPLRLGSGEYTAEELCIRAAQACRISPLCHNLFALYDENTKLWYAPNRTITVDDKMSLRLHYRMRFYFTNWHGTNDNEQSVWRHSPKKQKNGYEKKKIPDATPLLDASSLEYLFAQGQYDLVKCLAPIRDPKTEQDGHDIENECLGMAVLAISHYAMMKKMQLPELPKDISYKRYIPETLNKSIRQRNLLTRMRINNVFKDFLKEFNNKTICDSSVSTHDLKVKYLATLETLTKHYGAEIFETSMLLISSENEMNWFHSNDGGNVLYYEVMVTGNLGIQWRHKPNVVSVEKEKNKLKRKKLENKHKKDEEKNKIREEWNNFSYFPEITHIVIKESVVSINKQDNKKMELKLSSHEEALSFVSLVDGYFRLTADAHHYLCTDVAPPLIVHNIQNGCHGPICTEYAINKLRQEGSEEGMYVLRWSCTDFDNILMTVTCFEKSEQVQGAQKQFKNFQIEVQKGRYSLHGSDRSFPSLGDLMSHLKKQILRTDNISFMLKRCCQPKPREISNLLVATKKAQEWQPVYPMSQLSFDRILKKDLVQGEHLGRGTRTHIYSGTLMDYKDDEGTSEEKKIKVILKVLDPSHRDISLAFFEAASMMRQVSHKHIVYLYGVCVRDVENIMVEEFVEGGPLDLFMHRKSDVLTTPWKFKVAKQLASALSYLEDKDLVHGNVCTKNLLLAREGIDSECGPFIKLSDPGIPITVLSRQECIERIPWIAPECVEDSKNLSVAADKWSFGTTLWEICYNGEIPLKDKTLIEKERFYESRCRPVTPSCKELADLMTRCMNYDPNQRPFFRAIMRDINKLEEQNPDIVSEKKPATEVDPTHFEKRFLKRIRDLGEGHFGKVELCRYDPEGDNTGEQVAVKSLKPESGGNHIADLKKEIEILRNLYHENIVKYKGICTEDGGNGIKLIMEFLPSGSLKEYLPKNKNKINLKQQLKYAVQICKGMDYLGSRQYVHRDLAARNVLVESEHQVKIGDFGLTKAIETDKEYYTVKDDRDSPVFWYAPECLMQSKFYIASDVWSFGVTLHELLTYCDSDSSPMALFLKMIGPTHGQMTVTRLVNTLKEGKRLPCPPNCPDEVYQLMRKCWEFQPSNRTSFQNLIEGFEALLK
Protocol: as §1

Measured: pIC50

Chain of TYK2 (P29597 whole entry, species assumed): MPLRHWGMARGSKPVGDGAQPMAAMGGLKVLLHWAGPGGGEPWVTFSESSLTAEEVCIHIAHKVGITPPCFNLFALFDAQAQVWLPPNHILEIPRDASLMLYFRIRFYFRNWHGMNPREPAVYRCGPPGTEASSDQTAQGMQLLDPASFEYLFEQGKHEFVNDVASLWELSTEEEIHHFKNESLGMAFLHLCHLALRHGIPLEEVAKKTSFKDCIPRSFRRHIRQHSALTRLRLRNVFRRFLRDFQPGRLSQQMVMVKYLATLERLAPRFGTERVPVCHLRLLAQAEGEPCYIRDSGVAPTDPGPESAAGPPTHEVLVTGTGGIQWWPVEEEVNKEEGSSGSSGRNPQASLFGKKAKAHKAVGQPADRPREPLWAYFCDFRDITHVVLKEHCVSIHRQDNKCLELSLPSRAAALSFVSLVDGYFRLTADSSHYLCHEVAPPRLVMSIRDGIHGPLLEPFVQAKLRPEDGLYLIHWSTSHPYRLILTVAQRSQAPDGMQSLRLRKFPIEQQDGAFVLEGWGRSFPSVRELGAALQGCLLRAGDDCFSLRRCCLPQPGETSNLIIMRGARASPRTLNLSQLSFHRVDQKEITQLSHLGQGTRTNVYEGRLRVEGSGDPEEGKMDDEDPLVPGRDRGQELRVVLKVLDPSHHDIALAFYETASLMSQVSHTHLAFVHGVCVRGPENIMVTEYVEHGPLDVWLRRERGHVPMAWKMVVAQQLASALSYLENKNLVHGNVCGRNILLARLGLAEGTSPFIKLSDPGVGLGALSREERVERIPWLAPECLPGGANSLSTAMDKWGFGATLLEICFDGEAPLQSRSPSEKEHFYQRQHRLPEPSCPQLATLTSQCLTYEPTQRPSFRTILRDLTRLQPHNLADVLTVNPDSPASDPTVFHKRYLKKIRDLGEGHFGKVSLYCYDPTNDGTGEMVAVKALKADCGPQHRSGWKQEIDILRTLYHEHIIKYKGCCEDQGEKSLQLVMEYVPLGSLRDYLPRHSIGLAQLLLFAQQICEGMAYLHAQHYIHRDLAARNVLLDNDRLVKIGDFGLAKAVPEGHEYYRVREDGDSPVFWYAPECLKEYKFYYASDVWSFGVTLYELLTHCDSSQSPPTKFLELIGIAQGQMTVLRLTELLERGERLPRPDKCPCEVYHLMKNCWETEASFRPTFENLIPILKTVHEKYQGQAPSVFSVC

CC[C@H](Cn1ccc2cnc(Nc3cnn(CC(N)=O)c3)nc21)C(C)C [Example 1, (S)-2-(4-((7-(2-ethyl-3-methylbutyl)-7H-pyrrolo[2,3-d]pyrimidin-2-yl)amino)-1H-pyrazol-1-yl) acetamide]
> 7.00: all assays above

CC[C@H](Cn1ccc2cnc(Nc3cnn(CC(=O)N4CCOC4=O)c3)nc21)C(C)C [Example 3, (5)-3-(2-(4-((7-(2-ethyl-3-methylbutyl)-7H-pyrrolo[2,3-d]pyrimidin-2-yl)amino)-1H-pyrazol-1-yl)acetyl) oxazolidin-2-one]
> 7.00: all assays above

CCC(CC)Cn1ccc2cnc(Nc3cnn(CC(N)=O)c3)nc21 [Example 7, 2-(4-((7-(2-ethylbutyl)-7H-pyrrolo[2,3-d]pyrimidin-2-yl)amino)-1H-pyrazol-1-yl) acetamide]
> 7.00: all assays above

CC[C@@H](Cn1ccc2cnc(Nc3cnn(C4CCNC4=O)c3)nc21)C(C)C (stereo partly drawn) [Example 8]
> 7.00: all assays above
